Assay results reported in patent US9084766B2, “Compounds and compositions for targeting cancer stem cells” (Boston Biomedical, Inc., priority 2010, dated 2015).
Entries after “also recorded” stand apart in the source; their conditions may differ.

How the values were obtained:
[1] = test system: FaDu human head and neck cancer; assay: Antitumor activity in subcutaneous FaDu xenograft mice; assay type: in vivo
Description: In the studies shown in FIG. 8, immunosuppressed mice with established subcutaneous FaDu human head and neck cancer were given indicated amount of hand grounded Compound 1 with Crystal Form 1, or vehicle control orally (po). Compound 1 was formulated in […]™. All regimens were administered daily (qd). Tumor sizes were evaluated periodically during treatment.
In the study shown in FIG. 9, immunosuppressed mice with established subcutaneous FaDu human head and neck cancer were given 100 mg/kg of micronized Compound 1 produced with the synthetic process described in FIGS. 5A and 5B (first crop), or vehicle control orally (po). Compound 1 was formulated in […]™. All regimens were administered daily (qd). Tumor sizes were evaluated periodically during treatment. Form 2 has been successfully manufactured by a current good manufacturing practice (cGMP) process and received approval from the FDA and Health Canada to be used in clinical trials.
Form 3 can only be generated from Form 1 using a specially designed slurry process described herein. […] In the study shown in FIG. 10, immunosuppressed mice with established subcutaneous FaDu human head and neck cancer were given 200 mg/kg of Compound 1 with hand grounded Crystal Form 1 or Form 3, or vehicle control orally (po). Compound 1 was formulated in gelucire. All regimens were administered daily (qd). Tumor sizes were evaluated periodically during treatment. This polymorph has been successfully manufactured by a cGMP process and received approval from FDA and Health Canada to be used in clinical trials.
The anti-tumor activity of particles of Compound 1 with different particle size ranges is illustrated in FIG. 15, and the pharmacokinetic data for particles of Compound 1 with different particle size ranges is illustrated in FIGS. 16-18. In the study shown in FIG. 15, immunosuppressed mice with established subcutaneous FaDu human head and neck cancer were given indicated amount of Compound 1 with indicated particle size, or vehicle control orally (po). All regimens were administered daily (qd). Tumor size was evaluated periodically.
In an experiment, a formulation of Compound 1 particles sieved to 160 micron was tested in the model of immunosuppressed mice with established subcutaneous xenograft FaDu human head and neck cancer. The pharmaceutical composition was formulated as 80 mg/ml in 9% Gelucire, 20% Vitamin E TPGS (Table 3). […] All regimens were administered daily (qd).
In an experiment, Compound 1 crystals were milled to a median particle size of about 20 micron. […] All regimens were administered daily (qd).
FaDu human head and neck cancer cells were inoculated subcutaneously into female athymic nude mice (6×10^6 cells/mouse) and allowed to form palpable tumors. When the tumors reached approximately 100 mm^3, the animals were treated orally (po) with Compound 1 at 100 mg/kg or vehicle control daily. Compound 1 was formulated at 10 mg/ml in 20% gelucire. Tumors and bodyweights were measured throughout treatment (FIG. 15).
Daily examinations into the health status of each animal were also conducted. Body weights were checked every three days. Food and water was supplied daily according to the animal husbandry procedures of the facility. Treatment producing>20% lethality and or >20% net body weight loss were considered toxic. Results are expressed as mean tumor volume (mm^3)±SE. P Values<0.05 are considered to be statistically relevant.
Male or female athymic nude mice 4-5 weeks (Charles River Laboratories, Wilmington, Mass.), were acclimated to the animal housing facility for at least 1 week before study initiation. […]

advanced solid tumors = assay: Phase I clinical trial: tumor response (RECIST 1.1) and progression free survival; assay type: in vivo, human; settings: clinical trials
Excerpt: As of Feb. 7, 2011, 42 cancer patients with various advanced solid tumors who have failed chemotherapies were enrolled in the study.
Of the 42 patients dosed, 24 were evaluable for tumor response as of Feb. 7, 2011; 16 (16/24 evaluable patients) achieved stable disease (8 to 75+ weeks).

[2] = Phase I clinical trial: plasma pharmacokinetics; assay type: in vivo, human; settings: clinical trials (FIG. 11, FIG. 12)
Description: A favorable PK profile with oral bid dosing was also observed. The plasma concentration reached several folds over efficacious concentration (in vitro IC50).
In yet another suitable dosing regimen, Compound 1 is administered with food which delays the Tmax (Table 13).

In the case of CC(=O)c1cc2c(o1)C(=O)c1ccccc1C2=O [Crystal Form 1, 2-acetyl-4H,9H-naphtho[2,3-b]furan-4,9-dione], the anti-tumor activity ([1]; hand grounded Crystal Form 1 in GELUCIRE, po qd (FIG. 8)) is reported as “limited anti-tumor activity; also recorded: low anti-tumor activity”.

With CC(=O)c1cc2c(o1)C(=O)c1ccccc1C2=O [Crystal Form 3, 2-acetyl-4H,9H-naphtho[2,3-b]furan-4,9-dione] the antitumor activities ([1]; 200 mg/kg hand grounded, in gelucire, po qd (FIG. 10)) was “potent antitumor activities”.

In the case of CC(=O)c1cc2c(o1)C(=O)c1ccccc1C2=O [Crystal Form 2, 2-acetyl-4H,9H-naphtho[2,3-b]furan-4,9-dione], the “anti-tumor activity in cancer patients” value (advanced solid tumors) is reported as “strong signs of anti-tumor activity”, the anti-tumor activity ([1]; 100 mg/kg micronized (first crop) in GELUCIRE, po qd (FIG. 9)) is reported as “potent anti-tumor activity” and the “pharmacokinetics in cancer patients” value [2] is reported as “desirable pharmacokinetics”.
